Laboratory results reported in the supplement of paper PMC10307832.

How the values were obtained:
Assay in all cases: relative viability (nuclei count vs DMSO), 5 days (fraction); higher = more cells survive
NCI-H2087 = system: NCI-H2087
Outline: (§1)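 After 5 days of treatment, lung cancer cells in 1536-well plates were fixed and stained in a single step (final 0.05% Triton X-100, 1% formaldehyde, 1 ug/ml Hoechst) and their nuclei counted on 4× images. Treatment had been applied by pin tool the day after seeding as one drug alone or as a fixed anchor-drug dose with five library-drug doses (not always all listed) in √10 steps. Relative viability is the nuclei count of treated wells divided by that of vehicle wells, and values are medians of duplicate plates.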

201T = system: 201T
Outline: as §1

NCI-H1437 = system: NCI-H1437
Outline: as §1

NCI-H1666 = system: NCI-H1666
Outline: as §1

NCI-H2342 = system: NCI-H2342
Outline: as §1

LCLC-97TM1 = system: LCLC-97TM1
Outline: as §1

EKVX = system: EKVX
Outline: as §1

EPLC-272H = system: EPLC-272H
Outline: as §1

HCC-827 = system: HCC-827
Outline: as §1

LOU-NH91 = system: LOU-NH91
Outline: as §1

COR-L 105 = system: COR-L 105
Outline: as §1

HCC-44 = system: HCC-44
Outline: as §1

NCI-H358 = system: NCI-H358
Outline: as §1

LU99A = system: LU99A
Outline: as §1

HOP-62 = system: HOP-62
Outline: as §1

NCI-H647 = system: NCI-H647
Outline: as §1

NCI-H2085 = system: NCI-H2085
Outline: as §1

H3255 = system: H3255
Outline: as §1

NCI-H2126 = system: NCI-H2126
Outline: as §1

NCI-H1395 = system: NCI-H1395
Outline: as §1

PC-3 [JPC-3] = system: PC-3 [JPC-3]
Outline: as §1

NCI-H1975 = system: NCI-H1975
Outline: as §1

SW 1573 = system: SW 1573
Outline: as §1

BEN = system: BEN
Outline: as §1

**Q.** `CC(C)Oc1cc(Nc2nc(N[C@@H](C)c3ccc(F)cn3)ncc2Cl)n[nH]1` [AZ23] + CC(=O)c1c(C)c2cnc(Nc3ccc(N4CCNCC4)cn3)nc2n(C2CCCC2)c1=O [Palbociclib] (partner 0.5 µM) was tested. Which relative viability (NCI-H2087; first compound 0.01 µM) did it give?
**A.** Its relative viability is 0.255.

**Q.** And the relative viability (NCI-H2087; first compound 0.03162 µM)?
**A.** Its relative viability is 0.21.

**Q.** What about the relative viability (NCI-H2087; first compound 0.3162 µM) of the same compound?
**A.** Its relative viability is 0.22.

**Q.** What about the relative viability (201T; first compound 0.01 µM) of the same compound?
**A.** The relative viability was 0.359.

**Q.** What about the relative viability (201T; first compound 0.03162 µM) of the same compound?
**A.** The relative viability was 0.38.

**Q.** What about the relative viability (201T; first compound 0.3162 µM) of the same compound?
**A.** The relative viability was 0.372.

**Q.** What about the relative viability (NCI-H1437; first compound 0.01 µM) of the same compound?
**A.** The relative viability was 0.304.

**Q.** And the relative viability (NCI-H1437; first compound 0.03162 µM)?
**A.** Its relative viability is 0.324.

**Q.** What about the relative viability (NCI-H1437; first compound 0.3162 µM) of the same compound?
**A.** The relative viability was 0.335.

**Q.** What about the relative viability (NCI-H1666; first compound 0.01 µM) of the same compound?
**A.** Its relative viability is 0.673.

**Q.** And the relative viability (NCI-H1666; first compound 0.03162 µM)?
**A.** The relative viability was 0.647.

**Q.** And the relative viability (NCI-H1666; first compound 0.3162 µM)?
**A.** Its relative viability is 0.652.

**Q.** And the relative viability (NCI-H2342; first compound 0.01 µM)?
**A.** Its relative viability is 0.516.

**Q.** What about the relative viability (NCI-H2342; first compound 0.03162 µM) of the same compound?
**A.** Its relative viability is 0.511.

**Q.** And the relative viability (NCI-H2342; first compound 0.3162 µM)?
**A.** The relative viability was 0.509.

**Q.** What about the relative viability (LCLC-97TM1; first compound 0.01 µM) of the same compound?
**A.** The relative viability was 0.261.

**Q.** What about the relative viability (LCLC-97TM1; first compound 0.03162 µM) of the same compound?
**A.** Its relative viability is 0.248.

**Q.** What about the relative viability (LCLC-97TM1; first compound 0.3162 µM) of the same compound?
**A.** The relative viability was 0.203.

**Q.** And the relative viability (EKVX; first compound 0.01 µM)?
**A.** Its relative viability is 0.392.

**Q.** What about the relative viability (EKVX; first compound 0.03162 µM) of the same compound?
**A.** Its relative viability is 0.414.

**Q.** What about the relative viability (EKVX; first compound 0.3162 µM) of the same compound?
**A.** The relative viability was 0.358.

**Q.** And the relative viability (EPLC-272H; first compound 0.03162 µM)?
**A.** The relative viability was 0.279.

**Q.** What about the relative viability (EPLC-272H; first compound 0.3162 µM) of the same compound?
**A.** Its relative viability is 0.315.

**Q.** And the relative viability (HCC-827; first compound 0.01 µM)?
**A.** Its relative viability is 0.47.

**Q.** And the relative viability (HCC-827; first compound 0.03162 µM)?
**A.** Its relative viability is 0.535.

**Q.** What about the relative viability (HCC-827; first compound 0.3162 µM) of the same compound?
**A.** The relative viability was 0.471.

**Q.** And the relative viability (LOU-NH91; first compound 0.01 µM)?
**A.** Its relative viability is 0.574.

**Q.** And the relative viability (LOU-NH91; first compound 0.03162 µM)?
**A.** Its relative viability is 0.544.

**Q.** What about the relative viability (LOU-NH91; first compound 0.3162 µM) of the same compound?
**A.** The relative viability was 0.546.

**Q.** And the relative viability (COR-L 105; first compound 0.01 µM)?
**A.** The relative viability was 0.53.

**Q.** What about the relative viability (COR-L 105; first compound 0.03162 µM) of the same compound?
**A.** Its relative viability is 0.463.

**Q.** And the relative viability (COR-L 105; first compound 0.3162 µM)?
**A.** Its relative viability is 0.396.

**Q.** And the relative viability (HCC-44; first compound 0.01 µM)?
**A.** Its relative viability is 0.982.

**Q.** What about the relative viability (HCC-44; first compound 0.03162 µM) of the same compound?
**A.** The relative viability was 0.994.

**Q.** What about the relative viability (HCC-44; first compound 0.3162 µM) of the same compound?
**A.** Its relative viability is 0.93.

**Q.** And the relative viability (NCI-H358; first compound 0.01 µM)?
**A.** Its relative viability is 0.129.

**Q.** What about the relative viability (NCI-H358; first compound 0.03162 µM) of the same compound?
**A.** Its relative viability is 0.141.

**Q.** What about the relative viability (NCI-H358; first compound 0.3162 µM) of the same compound?
**A.** Its relative viability is 0.13.

**Q.** And the relative viability (LU99A; first compound 0.01 µM)?
**A.** Its relative viability is 0.39.

**Q.** And the relative viability (LU99A; first compound 0.03162 µM)?
**A.** The relative viability was 0.468.

**Q.** And the relative viability (LU99A; first compound 0.3162 µM)?
**A.** Its relative viability is 0.371.

**Q.** What about the relative viability (HOP-62; first compound 0.01 µM) of the same compound?
**A.** Its relative viability is 0.507.

**Q.** And the relative viability (HOP-62; first compound 0.03162 µM)?
**A.** Its relative viability is 0.467.

**Q.** And the relative viability (HOP-62; first compound 0.3162 µM)?
**A.** The relative viability was 0.437.

**Q.** And the relative viability (NCI-H647; first compound 0.01 µM)?
**A.** The relative viability was 0.408.

**Q.** What about the relative viability (NCI-H647; first compound 0.03162 µM) of the same compound?
**A.** The relative viability was 0.405.

**Q.** What about the relative viability (NCI-H647; first compound 0.3162 µM) of the same compound?
**A.** Its relative viability is 0.466.

**Q.** And the relative viability (NCI-H2085; first compound 0.01 µM)?
**A.** The relative viability was 0.435.

**Q.** What about the relative viability (NCI-H2085; first compound 0.03162 µM) of the same compound?
**A.** Its relative viability is 0.469.

**Q.** And the relative viability (NCI-H2085; first compound 0.3162 µM)?
**A.** The relative viability was 0.435.

**Q.** What about the relative viability (H3255; first compound 0.01 µM) of the same compound?
**A.** Its relative viability is 0.31.

**Q.** And the relative viability (H3255; first compound 0.03162 µM)?
**A.** The relative viability was 0.318.

**Q.** What about the relative viability (H3255; first compound 0.3162 µM) of the same compound?
**A.** Its relative viability is 0.295.

**Q.** And the relative viability (NCI-H2126; first compound 0.01 µM)?
**A.** Its relative viability is 0.332.

**Q.** What about the relative viability (NCI-H2126; first compound 0.03162 µM) of the same compound?
**A.** The relative viability was 0.335.

**Q.** What about the relative viability (NCI-H2126; first compound 0.3162 µM) of the same compound?
**A.** The relative viability was 0.342.

**Q.** And the relative viability (NCI-H1395; first compound 0.03162 µM)?
**A.** Its relative viability is 0.694.

**Q.** And the relative viability (NCI-H1395; first compound 0.3162 µM)?
**A.** Its relative viability is 0.641.

**Q.** What about the relative viability (PC-3 [JPC-3]; first compound 0.01 µM) of the same compound?
**A.** The relative viability was 0.552.

**Q.** What about the relative viability (PC-3 [JPC-3]; first compound 0.03162 µM) of the same compound?
**A.** The relative viability was 0.611.

**Q.** And the relative viability (PC-3 [JPC-3]; first compound 0.3162 µM)?
**A.** The relative viability was 0.536.

**Q.** What about the relative viability (NCI-H1975; first compound 0.01 µM) of the same compound?
**A.** The relative viability was 0.534.

**Q.** What about the relative viability (NCI-H1975; first compound 0.03162 µM) of the same compound?
**A.** The relative viability was 0.703.

**Q.** What about the relative viability (NCI-H1975; first compound 0.3162 µM) of the same compound?
**A.** Its relative viability is 0.591.

**Q.** And the relative viability (SW 1573; first compound 0.01 µM)?
**A.** The relative viability was 0.58.

**Q.** What about the relative viability (SW 1573; first compound 0.03162 µM) of the same compound?
**A.** Its relative viability is 0.467.

**Q.** What about the relative viability (SW 1573; first compound 0.3162 µM) of the same compound?
**A.** Its relative viability is 0.394.

**Q.** What about the relative viability (BEN; first compound 0.01 µM) of the same compound?
**A.** Its relative viability is 0.475.

**Q.** What about the relative viability (BEN; first compound 0.03162 µM) of the same compound?
**A.** Its relative viability is 0.458.

**Q.** What about the relative viability (BEN; first compound 0.3162 µM) of the same compound?
**A.** The relative viability was 0.455.
